Laboratory results published in article PMC9582434, “Ryanodine receptor-active non-dioxin-like polychlorinated biphenyls cause neurobehavioral deficits in larval zebrafish” (Frontiers in Toxicology, 2022).

Assays:
[1] = PCB body burden in larvae at 5 dpf by gas chromatography; format: in vivo, zebrafish; conditions: for % uptake (measured uptake/theoretical uptake × 100): averaged across 0.1, 1 and 10 µM, larvae at 5 dpf; for larval body burden relative to the other tested PCBs: exposure 6 hpf to 5 dpf
Method: PCB body burden was assessed at 5 dpf by pressurized liquid extraction Dionex ASE200 system (Thermo Scientific, Sunnyvale, CA, United States) ([Wu et al., 2015]). Briefly, zebrafish larvae samples (n = 36–51 per sample) were mixed with diatomaceous earth (2 g) and placed in an extraction cell (33 ml) containing Florisil (60–100 mesh, 12 g, Fisher Scientific, Fair Lawn, NJ, United States). PCB 117 (100 ng) was added to each sample as surrogate recovery standard, and the cells were extracted with hexane-acetone (1:1, v/v) at 100°C and 1,500 psi (10 MPa) with preheat equilibration for 6 min, 35% of cell flush volume and 1 static cycle of 5 min. Method blanks containing only Florisil and diatomaceous earth and sample blanks with naïve (unexposed) and/or DMSO-exposed zebrafish larvae were extracted in parallel with each sample set. The extracts were concentrated to approximately 0.75 ml using a Turbo Vap II (Biotage, Charlotte, NC, United States) and transferred to glass tubes. Samples were further cleaned up, as described previously, to remove sulfur and other impurities ([Kania-Korwel et al., 2007]). All samples were spiked with PCB 204 (100 ng) as internal standard (volume corrector) prior to gas chromatographic analysis.
Analysis of PCBs was performed in the splitless mode on an Agilent 7890 gas chromatograph equipped with a ^63Ni micro electron capture detector (µECD) and a SPB-1 capillary column (length, 60 m; inner diameter, 250 μm; and 0.25 µm film thickness; Supelco, St. Louis, MO, United States) ([Wu et al., 2013]). The following temperature program was used based on a published method ([Kania-Korwel et al., 2011]): hold at 80°C for 1 min, 20°C/min to 215°C, then 0.1°C/min to 219.5°C, and 20°C/min to 280°C, then hold at 280°C for 3 min. A constant helium flow rate of 1 ml/min was used for all analyses. The injector and detector temperatures were 250°C and 300°C, respectively. The ^63Ni-μECD used for the PCB analysis was linear up to concentrations of 1,000 ng/ml for all analytes investigated (R ^2 > 0.999). The recovery of PCB 117 was 83 ± 7% (range: 71–97%). A detailed summary of the limits of detection, limits of quantification, and background levels of the analyzed PCBs is presented in Supplementary Table S1.
The neurotoxic potential of the congeners tested in this study were ranked based on the three endpoints measured in this study: RYR binding, behavior, and body burden. Congeners were ranked relative to each other for each individual endpoint from 1 (highest) to 6 (lowest), and then the three scores for each congener averaged to obtain an overall relative ranking for each congener. Ranking for RYR activation was based on EC2X values and their relative comparisons. Behavior ranking represents the total change from control for each congener across all epochs (L1, D1, L2, and D2) and all days (3, 4, and 5 dpf) tested. AUC values were normalized to the appropriate DMSO control (AUC value/DMSO). Each value was then subtracted from 1 to determine the deviation from the control values [1 − (AUC value/DMSO)]. Absolute values were combined for all concentrations of each congener across all time points (epochs and testing days). PCB body burden was ranked as the percentage uptake using the following calculation: (uptake/total PCB) × 100, where, the uptake values were the measured PCB levels in the samples, and the total PCB values were calculated using the exposure concentration (0.1, 1, or 10 μM) and volume (200 μl). The resulting values were averaged across the three assayed concentrations and rounded to the closest integer to obtain the final ranking order.

[2] = Enantioselective gas chromatographic analysis of PCB residues in larvae; format: in vivo, zebrafish; conditions: residues in exposed larvae; no significant atropisomeric enrichment
Method: The enantioselective analysis of PCB 84 was performed on a 6890 Agilent gas chromatograph equipped with a ^63Ni-µECD detector and CP-Chiralsil-Dex CB capillary column with cyclodextrin directly bonded to dimethylpolysiloxane (25 m length, 0.25 mm inner diameter, 0.25 µm film thickness; Varian, Palo Alto, CA, United States). The temperature program was as follows ([Kania-Korwel et al., 2006]): starting temperature 50°C, hold for 1 min, 10°C/min to 140°C for 100 min, then 10°C/min to 200°C for 5 min. The enantioselective analysis of PCB 95 was performed on a 7890 Agilent gas chromatograph equipped with a ^63Ni-µECD detector and Chiraldex B-DM (BDM) capillary column (length, 30 m × inner diameter, 250 μm × 0.12 µm film thickness, Supelco; St. Louis, MO, United States). The following temperature program was used ([Uwimana et al., 2016]): starting temperature 50°C for 1 min, 10°C/min to 160°C for 90 min, then 10°C/min to 200°C for 10 min. For both instruments, the injector was operated in the splitless mode at 250°C, and the detector temperature was 250°C. […] Enantiomer fractions (EF) were calculated with the drop valley method ([Asher et al., 2009]; [Uwimana et al., 2016]) as EF = Area E1/(Area E1 + Area E2), were Area E1 and Area E2 denote the peak area of the first and second eluting atropisomer, respectively. […]

larval zebrafish = conditions: 2020, cited from earlier work

With Clc1ccc(-c2ccc(Cl)cc2Cl)cc1 [PCB 28] the “% uptake (measured uptake/theoretical uptake × 100)” value [1] was 4.5%.
For Clc1ccc(-c2ccc(Cl)c(Cl)c2)c(Cl)c1 [PCB 66], the “% uptake (measured uptake/theoretical uptake × 100)” value [1] was 5.6%.
For Clc1cccc(-c2c(Cl)ccc(Cl)c2Cl)c1Cl [PCB 84], the “% uptake (measured uptake/theoretical uptake × 100)” value [1] was 9.2% and the “average EF (enantiomer fraction) values” [2] was 0.50 ± 0.01.
In the case of Clc1ccc(Cl)c(-c2c(Cl)ccc(Cl)c2Cl)c1 [PCB 95, 2,2',3,5',6-pentachlorobiphenyl], the “% uptake (measured uptake/theoretical uptake × 100)” value [1] is listed as 7.4%, the “malformations after developmental exposure” value (larval zebrafish; exposure commenced shortly after fertilization, ref Ranasinghe et al.) is listed as “caused malformations” and the “average EF (enantiomer fraction) values” [2] is listed as 0.50 ± 0.01.
In the case of Clc1cc(Cl)c(-c2ccc(Cl)c(Cl)c2Cl)cc1Cl [PCB 138], the “% uptake (measured uptake/theoretical uptake × 100)” value [1] is reported as 13.8% and the “larval body burden relative to the other tested PCBs” value [1] is reported as “highest”.
For Clc1cc(Cl)c(-c2cc(Cl)c(Cl)cc2Cl)cc1Cl [PCB 153, 2,2',4,4',5,5'-Hexachlorobiphenyl], the “% uptake (measured uptake/theoretical uptake × 100)” value [1] is listed as 1.4%, the “larval body burden relative to the other tested PCBs” value [1] is listed as “lowest” and the malformations or mortality (larval zebrafish; larval zebrafish younger than 7 dpf, static exposure, up to 10 μM, ref Aluru et al.) is listed as “no malformations or mortality”.
